Assay [1] addresses GDP-loaded KRAS G12D (Homo sapiens (Human), UniProt P01116, G12D). Description: KRAS G12D (GDP) biochemical assay (TR-FRET probe displacement). The conditions noted are these: 2 hours. It is filed as binding. In short, it runs like this:
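Compound pre-incubated 30 min with GDP-loaded KRAS G12D in 50 mM Hepes pH 7.4, 150 mM NaCl, 5 mM MgCl2, 0.005% Tween-20, then Eu-streptavidin and TR-FRET probe added. After 2 h at room temperature, TR-FRET ratio read; IC50 is 50% ratio decrease, sigmoidal fit.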

For assay [2], the system named is GP2D (KRAS G12D) cells. As to the kind of experiment: 2D cell viability assay (CellTiter-Glo). In kind it is cell-based. The conditions noted are these: GP2d, 96 h, 4 days. In short, it runs like this:
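GP2D (KRAS G12D) cells, 1000/well in RPMI + 10% FBS, were plated onto compound (1:3 DMSO series) and grown 4 days at 37 °C, 5% CO2 in 2D. CellTiter-Glo luminescence was read; EC50 is the concentration giving 50% signal decrease, from sigmoidal fit.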
On the technique in general: Cellular ATP, detected with luciferase, serves as a proxy for viable cell number.

Sequence of GDP-loaded KRAS G12D (P01116-2 other isoform, or with tags, fused parts or gaps G12D): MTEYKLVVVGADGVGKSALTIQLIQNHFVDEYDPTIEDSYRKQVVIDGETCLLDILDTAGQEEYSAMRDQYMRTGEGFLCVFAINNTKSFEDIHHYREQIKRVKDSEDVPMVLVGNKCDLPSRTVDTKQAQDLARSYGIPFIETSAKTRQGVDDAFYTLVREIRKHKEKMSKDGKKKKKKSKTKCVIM

What is called IC50 is the concentration that inhibits the measured activity by half. Usually EC50 stands for the concentration at which the effect is half-maximal. A lower EC50 goes with an effect from little substance. In turn, `C#Cc1c(F)ccc2cc(O)cc(-c3nc4c5c(nc(OC[C@@]67CCCN6C[C@H](OC(C(F)(F)F)(C(F)(F)F)C(F)(F)F)CC7)nc5c3F)N3C[C@H]5CC[C@H](N5)[C@H]3CO4)c12` [Example 56, 5-ethynyl-6-fluoro-4-((5aS,6S,9R)-1-fluoro-12-(((6R,8aS)-6-((1,1,1,3,3,3-hexafluoro-2-(trifluoromethyl)propan-2-yl)oxy)hexahydroindolizine-8a(1H)-yl)methoxy)-5a,6,7,8,9,10-hexahydro-5H-4-oxa-3,10a,11,13,14-pentaaza-6,9-methanonaphtho[1,8-ab]heptalen-2-yl)naphthalen-2-ol] gave an IC50 in assay [1] of 13 nM. The response in assay [2] was half-maximal at 50 nM (EC50).

`C#Cc1c(F)ccc2cc(O)cc(-c3cc4c5c(nc(OC[C@@]67CCCN6C[C@H](F)C7)nc5c3F)N3C[C@H]5CC[C@H](N5)[C@H]3CO4)c12` [Example 57, 5-ethynyl-6-fluoro-4-((5aS,6S,9R)-1-fluoro-13-(((2R,7aS)-2-fluorotetrahydro-1H-pyrrolizin-7a(5H)-yl)methoxy)-5a,6,7,8,9,1O-hexahydro-5H-6,9-epiminoazepino[2′,1′:3,4][1,4]oxazepino[5,6,7-de]quinazolin-2-yl)naphthalen-2-ol] showed an IC50 in assay [1] of 0.6 nM. The same compound gave a half-maximal effective concentration (EC50) in assay [2] of 28 nM.

In turn, `C#Cc1c(F)ccc2cc(O)cc(-c3nc4c5c(nc(OC[C@@]67CCCN6C[C@H](F)C7)nc5c3F)N3C[C@H]5CC[C@H](N5)[C@H]3[C@@H](C)O4)c12` [Example 61, 5-ethynyl-6-fluoro-4-((5R,5aS,6S,9R)-1-fluoro-12-(((2R,7aS)-2-fluorotetrahydro-1H-pyrrolizin-7a(5H)-yl)methoxy)-5-methyl-5a,6,7,8,9,10-hexahydro-5H-4-oxa-3,10a,11,13,14-pentaaza-6,9-methanonaphtho[1,8-ab]heptalen-2-yl)naphthalen-2-ol] had a half-inhibitory concentration (IC50) in assay [1] of 26 nM. In addition, in assay [2], the response was half-maximal at 520 nM (EC50).

In assay [1], `C#Cc1c(F)c(F)cc2cccc(-c3nc4c5c(nc(OC[C@@]67CCCN6C[C@H](F)C7)nc5c3F)N3C[C@H]5CC[C@H](N5)[C@H]3CO4)c12` [Example 62, (5aS,6S,9R)-2-(8-ethynyl-6,7-difluoronaphthalen-1-yl)-1-fluoro-12-(((2R,7aS)-2-fluorotetrahydro-1H-pyrrolizin-7a(5H)-yl)methoxy)-5a,6,7,8,9,10-hexahydro-5H-4-oxa-3,10a,11,13,14-pentaaza-6,9-methanonaphtho[1,8-ab]heptalene] came in with a half-maximal inhibitory concentration (IC50) of 7 nM. In assay [2], this compound gave an EC50 of 79 nM.

Turning to `C#Cc1c(F)ccc2cc(O)cc(-c3nc4c5c(nc(OC[C@@]67CCCN6[C@H](COC(C(F)(F)F)(C(F)(F)F)C(F)(F)F)CC7)nc5c3F)N3C[C@H]5CC[C@H](N5)[C@H]3CC4)c12` [Example 63, 5-ethynyl-6-fluoro-4-((5aR,6S,9R)-1-fluoro-12-(((3S,7aS)-3-(((1,1,1,3,3,3-hexafluoro-2-(trifluoromethyl)propan-2-yl)oxy)methyl)tetrahydro-1H-pyrrolizin-7a(5H)-yl)methoxy)-4,5,5a,6,7,8,9,10-octahydro-3,10a,11,13,14-pentaaza-6,9-methanonaphtho[1,8-ab]heptalen-2-yl)naphthalen-2-ol], the IC50 in assay [1] amounted to 0.2 nM. It took 0.2 nM to reach a half-maximal effect in assay [2] (EC50).

`C#Cc1c(F)ccc2cc(O)cc(-c3nc4c5c(nc(OC[C@@]67CCCN6C[C@H](F)C7)nc5c3F)N3C[C@H]5CC[C@H](N5)[C@@H]3[C@@H](C)C4)c12` [Example 64, 5-ethynyl-6-fluoro-4-((5S,5aS,6S,9R)-1-fluoro-12-(((2R,7aS)-2-fluorotetrahydro-1H-pyrrolizin-7a(5H)-yl)methoxy)-5-methyl-4,5,5a,6,7,8,9,10-octahydro-3,10a,11,13,14-pentaaza-6,9-methanonaphtho[1,8-ab]heptalen-2-yl)naphthalen-2-ol]: the IC50 in assay [1] came to 0.1 nM. The EC50 in assay [2] turned out to be 0.3 nM.

As for `Fc1ccc2c(-c3nc4c5c(nc(OC[C@@]67CCCN6C[C@H](F)C7)nc5c3F)N3C[C@H]5CC[C@H](N5)[C@H]3CO4)cccc2c1` [Example 66, (5aS,6S,9R)-1-fluoro-2-(6-fluoronaphthalen-1-yl)-12-(((2R,7aS)-2-fluorotetrahydro-1H-pyrrolizin-7a(5H)-yl)methoxy)-5a,6,7,8,9,10-hexahydro-5H-4-oxa-3,10a,11,13,14-pentaaza-6,9-methanonaphtho[1,8-ab]heptalene], in assay [1], the half-inhibitory concentration (IC50) stood at 860 nM. For the same compound, the EC50 in assay [2] is > 1000 nM.

`C#Cc1c(F)ccc2cc(O)cc(-c3nc4c5c(nc(OCC6(CN7CCC[C@@H](F)C7)CC6)nc5c3F)N3C[C@H]5CC[C@H](N5)[C@H]3CC4)c12` [Example 67] showed an IC50 in assay [1] of 0.08 nM. In assay [2], a half-maximal effect (EC50) was put at 1 nM.

For `C#Cc1c(F)ccc2cc(O)cc(-c3nc4c5c(nc(OCC6(CN7CCC(F)CC7)CC6)nc5c3F)N3C[C@H]5CC[C@H](N5)[C@H]3CC4)c12` [Example 68, 5-ethynyl-6-fluoro-4-((5aR,6S,9R)-1-fluoro-12-((1-((4-fluoropiperidin-1-yl)methyl)cyclopropyl)methoxy)-4,5,5a,6,7,8,9,10-octahydro-3,10a,11,13,14-pentaaza-6,9-methanonaphtho[1,8-ab]heptalen-2-yl)naphthalen-2-ol], the concentration for half-maximal inhibition (IC50) in assay [1] was 0.05 nM. In assay [2], the concentration for a half-maximal effect (EC50) was determined as 0.6 nM.

As to `C#Cc1c(F)ccc2cc(O)cc(-c3nc4c5c(nc(OCC6(CN7CCC(C(F)(F)F)CC7)CC6)nc5c3F)N3C[C@H]5CC[C@H](N5)[C@H]3CC4)c12` [Example 69, 5-ethynyl-6-fluoro-4-((5aR,6S,9R)-1-fluoro-12-((1-((4-(trifluoromethyl)piperidin-1-yl)methyl)cyclopropyl)methoxy)-4,5,5a,6,7,8,9,10-octahydro-3,10a,11,13,14-pentaaza-6,9-methanonaphtho[1,8-ab]heptalen-2-yl)naphthalen-2-ol], in assay [1], the concentration for half-maximal inhibition (IC50) came to 0.1 nM. The EC50 in assay [2] was 0.6 nM.

`C#Cc1c(F)ccc2cc(O)cc(-c3nc4c5c(nc(OCC6(CN7CC[C@@H](C(F)(F)F)C7)CC6)nc5c3F)N3C[C@H]5CC[C@H](N5)[C@H]3CC4)c12` [Example 70, 5-ethynyl-6-fluoro-4-((5aR,6S,9R)-1-fluoro-12-((1-(((R)-3-(trifluoromethyl)pyrrolidin-1-yl)methyl)cyclopropyl)methoxy)-4,5,5a,6,7,8,9,10-octahydro-3,10a,11,13,14-pentaaza-6,9-methanonaphtho[1,8-ab]heptalen-2-yl)naphthalen-2-ol] displayed a concentration for half-maximal inhibition (IC50) in assay [1] of 0.1 nM. The compound also displayed a concentration for a half-maximal effect (EC50) in assay [2] of 1 nM.

Regarding `C#Cc1c(F)ccc2cc(O)cc(-c3nc4c5c(nc(OC[C@@]67CCCN6C[C@H](F)C7)nc5c3F)N3C[C@H]5CC[C@H](N5)[C@H]3[C@H](C3CC3)O4)c12` [Example 71, 4-((5S,5aS,6S,9R)-5-cyclopropyl-1-fluoro-12-(((2R,7aS)-2-fluorotetrahydro-1H-pyrrolizin-7a(5H)-yl)methoxy)-5a,6,7,8,9,10-hexahydro-5H-4-oxa-3,10a,11,13,14-pentaaza-6,9-methanonaphtho[1,8-ab]heptalen-2-yl)-5-ethynyl-6-fluoronaphthalen-2-ol], the IC50 in assay [1] came out at 4 nM. The EC50 in assay [2] is 81 nM.

As for `Fc1ccc(-c2nc3c4c(nc(OC[C@@]56CCCN5C[C@H](F)C6)nc4c2F)N2C[C@H]4CC[C@H](N4)[C@H]2CO3)c2ccccc12` [Example 72, (5aS,6S,9R)-1-fluoro-2-(4-fluoronaphthalen-1-yl)-12-(((2R,7aS)-2-fluorotetrahydro-1H-pyrrolizin-7a(5H)-yl)methoxy)-5a,6,7,8,9,10-hexahydro-5H-4-oxa-3,10a,11,13,14-pentaaza-6,9-methanonaphtho[1,8-ab]heptalene], the 50% inhibitory concentration (IC50) in assay [1] came out at 510 nM. The concentration giving a half-maximal response (EC50) in assay [2] was > 1000 nM.

With `C#Cc1c(F)ccc2cc(O)cc(-c3nc4c5c(nc(OC[C@@]67CCCN6C[C@H](F)C7)nc5c3F)N3C[C@H]5CC[C@H](N5)[C@@H]3CCO4)c12` [Example 77, 5-ethynyl-6-fluoro-4-((6aS,7S,10R)-1-fluoro-13-(((2R,7aS)-2-fluorotetrahydro-1H-pyrrolizin-7a(5H)-yl)methoxy)-5,6,6a,7,8,9,10,11-octahydro-4-oxa-3,11a,12,14,15-pentaaza-7,10-methanocyclohepta[4,5]cycloocta[1,2,3-de]naphthalen-2-yl)naphthalen-2-ol], the concentration for half-maximal inhibition (IC50) in assay [1] was 6 nM. In addition, the half-maximal effective concentration (EC50) in assay [2] is 83 nM.

Consider `C#Cc1c(F)ccc2cc(O)cc(-c3nc4c5c(nc(OC[C@@]67CCCN6C[C@H](F)C7)nc5c3F)N3C[C@H]5CC[C@H](N5)[C@@H]3[C@H](C)C4)c12` [Example 79, 5-ethynyl-6-fluoro-4-((5R,5aS,6S,9R)-1-fluoro-12-(((2R,7aS)-2-fluorotetrahydro-1H-pyrrolizin-7a(5H)-yl)methoxy)-5-methyl-4,5,5a,6,7,8,9,10-octahydro-3,10a,11,13,14-pentaaza-6,9-methanonaphtho[1,8-ab]heptalen-2-yl)naphthalen-2-ol], for which the concentration for half-maximal inhibition (IC50) in assay [1] came to 7 nM. In assay [2], the EC50 stood at 15.3 nM.

`C#Cc1c(F)ccc2cc(O)cc(-c3nc4c5c(nc(OC[C@@]67CCCN6C[C@H](F)C7)nc5c3F)N3C[C@H]5CC[C@H](N5)[C@H]3[C@@H](C(F)F)O4)c12` [Example 82, 4-((5S,5aS,6S,9R)-5-(difluoromethyl)-1-fluoro-12-(((2R,7aS)-2-fluorotetrahydro-1H-pyrrolizin-7a(5H)-yl)methoxy)-5a,6,7,8,9,10-hexahydro-5H-4-oxa-3,10a,11,13,14-pentaaza-6,9-methanonaphtho[1,8-ab]heptalen-2-yl)-5-ethynyl-6-fluoronaphthalen-2-ol]: the 50% inhibitory concentration (IC50) in assay [1] turned out to be 11.4 nM. For the same compound, the EC50 in assay [2] turned out to be 104 nM.

The values are drawn from patent US20230339981A1, “KRAS G12D MODULATING COMPOUNDS” (priority 2022, published 2023).
